Measured values: US20130281313A1, “PROGNOSTIC AND/OR PREDICTIVE BIOMARKERS AND BIOLOGICAL APPLICATIONS THEREOF” (INSTITUT GUSTAVE ROUSSY, priority 2010, published 2013)

Key:
Format in all cases: cell-based, human
[1] = system: A549 cells; test: Cytofluorometric assessment of cell death (DiOC6(3)/PI co-staining); conditions: A549 cells; for apoptosis-inducing effect of CDDP (DiOC6(3)/PI co-staining or DNA loss, sub-G1 peak): CDDP irrespective of the presence of PN
Protocol: Unless otherwise specified, chemicals were purchased from Sigma-Aldrich (St. Louis, USA), culture media and supplements for cell culture from Gibco-Invitrogen (Carlsbad, USA) and plasticware from Corning (Corning, USA). […] Orlistat (Xenical®) was obtained from Roche (Basel, Switzerland). […] Undissolved material was removed by two sequential rounds of centrifugation at 12,000 G (5 min, room temperature, RT), supernatants were collected and stored at −80° C. under protection from light until use. In low-throughput experiments, all cell lines were treated with 2.5 mM pyridoxine (PN), exception made for A549 cells that received 5 mM PN.
To avoid depleting the siRNA library of selected sequences, siRNAs for validation experiments were purchased as custom molecules from Sigma-Aldrich. For low-throughput experiments, (see below for the transfection protocols employed in the siRNA screen), siRNA were transfected in A549 cells with Oligofectamine™ reagent (Invitrogen), following the manufacturer's instructions. Transfection with a non-targeting siRNA (siUNR) was employed as a negative control condition. Forty-eight hours after transfection, siRNA-mediated target downregulation was assessed by immunoblotting (see below).
All cytofluorometric determinations were carried out a FACSCalibur or a FACScan cytofluorometer (BD Biosciences, San Jose, USA) equipped with a 70 μm nozzle.
(§1) First line statistical analysis of cytofluorometric results was performed by using the CellQuest™ software (BD Biosciences), by gating on the events characterized by normal forward scatter and side scatter parameters. Apoptosis- and cell cycle-related data were further analyzed with Microsoft Excel (Microsoft Co., Redmond, USA) and statistical significance was assessed by means of two-tailed Student's t test (p<0.05).

[2] = system: A549 cells; test: Targeted metabolomic studies (ATP, ADP, AMP, GSH; RRLC-MS); conditions: A549 cells incubated for 24 h with 5 mM GSH
Protocol: A549 cells were left untreated or treated with 25 μM CDDP alone or in combination with 5 mM PN, for 24 h. Thereafter, both attached (living) and detached (dying/dead) cells were harvested, washed once in cold PBS and pelleted (800 G for 5 min). Pellets were resuspended in 200 μL deionized water, briefly vortexed and sonicated. 800 μl ice-cold methanol was added, and samples were kept in ice for 15 min, vortexed and centrifuged at 13,000 G for 10 min at 4° C. Supernatants were dried in a SpeedVac drier (Thermo Scientific-Pierce) and stored at −80° C. until analysis. Pellets were resuspended in 150 μL 98:2 water/acetonitrile immediately before analytical determinations (see below).
ATP, ADP, AMP and GSH were quantified on a Rapid Resolution Liquid Chromatography (RRLC) 1200SL system coupled to a 6410 Triple Quadripole (QQQ) mass spectrometer (both from Agilent Technologies). For nucleotides, RRLC was performed on 150×2.1 mm, 3.5 μM Eclipse Plus columns (Agilent Technologies) with water containing 4 mM dimethylhexylamine (DMHA) plus 0.01% (v/v) acetic acid in channel A and acetonitrile in channel B, in gradient mode at a flow rate of 0.2 mL/min: t=0 min 2% B; t=9 min 32% B; t=10 min 95% B; T=12 min 95% B, re-equilibration time=6 min. Mass spectrometry was performed in positive electrospray ionization mode at +4 kV on the QQQ system operating in MRM mode. MRM transitions were optimized with direct infusions of ATP, ADP, and AMP standards with direct infusion, and four transitions were recorded for each compounds. Parent ions were adduct ions of DMHA and also proton adducts:
For GSH, RRLC was performed on a 150×2.1 mm, 3.5 μM Stable Bond AQ column (Agilent Technologies) with water containing 0.2% (v/v) acetic acid in channel A and methanol in channel B, in gradient mode at a flow rate of 0.3 mL/min: t=0 min 2% B; t=8 min 95% B; t=9 min 95% B; re-equilibration time=6 min. Mass spectrometry was performed as above. MRM transitions were optimized with direct infusion of GSH standards.
Data collection and analysis were performed with the MassHunter software (Agilent Technologies).

[3] = system: A549 cells; test: Intracellular levels of CDDP in cell lysates; conditions: 24 h, 25 μM CDDP alone or with PN and/or GSH, normalized to protein content
Protocol: (E,F) Intracellular levels of CDDP (normalized to protein content) in lysates from untransfected A549 cells (D) or A549 cells transfected with a PDXK-targeting siRNA (E), treated for 24 h with 25 μM CDDP alone or in combination with PN and/or GSH. Mean±SEM (n=6). *=p<0.05 (Studen's t test), as compared to untransfected (D) or siUNR transfected (E) cells treated with CDDP only. n.s.=non significant (Student's t test), as compared to cells treated with the same concentration of GSH (D) or to siPDXK-transfected cells treated with CDDP only (E).

[4] = system: A549 cells; test: Cell cycle distribution (PI staining, cytofluorometry); conditions: 10 μM CDDP alone or with PN and/or NAC
Protocol: To measure apoptosis-related parameters, living cells were labeled for 30 min at +37° C. with 40 nM 3,3′dihexyloxalocarbocyanine iodide (DiOC6(3), from Molecular Probes-Invitrogen, Eugene, USA), which quantifies the mitochondrial transmembrane potential (Δψm), plus 1 μg/mL propidium iodide (PI), which only accumulates in cells with ruptured plasma membrane {Galluzzi, 2009; Galluzzi, 2008; Galluzzi, 2007}. To assess cell cycle distribution, cells were collected, fixed by gentle vortexing in ice-cold 80% (v/v) ethanol (Carlo Erba Reagents, Milano, Italy) and stained with 50 μg/mL PI in 0.1% (w/v) D-glucose in PBS supplemented with 1 μg/mL (w/v) RNAse A {Mondragon, 2009; Mouhamad, 2007}. All cytofluorometric determinations were carried out a FACSCalibur or a FACScan cytofluorometer (BD Biosciences, San Jose, USA) equipped with a 70 μm nozzle.
as §1

Structure (SMILES)	protection against the cytotoxic effect of CDDP plus PN ([1]; 25 or 75 μM CDDP plus PN)	apoptosis-inducing effect of CDDP (DiOC6(3)/PI co-staining or DNA loss, sub-G1 peak) [1]	intracellular GSH levels upon extracellular GSH [2]	intracellular accumulation of CDDP [3]	cell cycle arrest induced by CDDP [4]
N[C@@H](CCC(=O)N[C@@H](CS)C(=O)NCC(=O)O)C(=O)O [GSH, glutathione]	protected cells against the cytotoxic effect of CDDP plus PN	blocked the apoptosis-inducing effect of CDDP	had no significant impact on intracellular GSH levels	strongly inhibited the accumulation of CDDP within the cells	
CC(=O)N[C@@H](CS)C(=O)O [NAC, N-acetylcysteine]		blocked the apoptosis-inducing effect of CDDP			failed to reverse the cell cycle arrest induced by CDDP
